The values below come from patent US7504517B2, “Kv1.5 potassium channel inhibitors” (Wyeth, priority 2006, dated 2009).

In one data set the target is HERG (Homo sapiens, UniProt Q12809). In words: HERG Patch Clamp EP. The settings on record: for inhibition at 10 µM: human, HEK cells stably overexpressing HERG.
The next data set concerns the target T1, Kv1.5 (Homo sapiens, UniProt P22460).
T1 construct: expressed in transfected cells; host or cells: HEK or LTK- cells
In words: Kv1.5 Patch Clamp EP. Type of data set: cell-based. As to conditions: whole cell patch clamp; for inhibition at 1 µM: single point, Kv1.5 stably over expressed in HEK or LTK- cells; for IC50: HEK or LTK- cells, at least four concentrations, n=3. The procedure: The external solution is standard Tyrodes solution. […] Inhibition was measured at the end of the 1 second pulses and expressed relative to controls. Initial Kv1.5 inhibition is estimated by single point determinations done at 1 μM.
(In patch-clamp work, channel activity is measured electrically.)

Another data set relates to L-type calcium channels. Description: FLIPR L-Type Calcium Channel Assay. It counts as cell-based, murine. As to conditions: HL-1 cells expressing endogenous L-type calcium channels; calcium influx after 20 mM KCl; read-out: L-type Ca^2+ IC50. The method in brief:
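After a 15 min compound pre-incubation at 37 °C with 2.5 mM probenecid, L-type channels were opened by depolarising with 20 mM KCl (final). Fluorescence (488 nm excitation, 510–570 nm emission) was read for 5 min.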

Broadly, the inhibition is the drop in the measured response relative to a control, in per cent. Low values mean a response near the control, high ones a response far below the control. In general, IC50 refers to the midpoint of a concentration-inhibition curve.

T1 sequence (P22460 whole entry): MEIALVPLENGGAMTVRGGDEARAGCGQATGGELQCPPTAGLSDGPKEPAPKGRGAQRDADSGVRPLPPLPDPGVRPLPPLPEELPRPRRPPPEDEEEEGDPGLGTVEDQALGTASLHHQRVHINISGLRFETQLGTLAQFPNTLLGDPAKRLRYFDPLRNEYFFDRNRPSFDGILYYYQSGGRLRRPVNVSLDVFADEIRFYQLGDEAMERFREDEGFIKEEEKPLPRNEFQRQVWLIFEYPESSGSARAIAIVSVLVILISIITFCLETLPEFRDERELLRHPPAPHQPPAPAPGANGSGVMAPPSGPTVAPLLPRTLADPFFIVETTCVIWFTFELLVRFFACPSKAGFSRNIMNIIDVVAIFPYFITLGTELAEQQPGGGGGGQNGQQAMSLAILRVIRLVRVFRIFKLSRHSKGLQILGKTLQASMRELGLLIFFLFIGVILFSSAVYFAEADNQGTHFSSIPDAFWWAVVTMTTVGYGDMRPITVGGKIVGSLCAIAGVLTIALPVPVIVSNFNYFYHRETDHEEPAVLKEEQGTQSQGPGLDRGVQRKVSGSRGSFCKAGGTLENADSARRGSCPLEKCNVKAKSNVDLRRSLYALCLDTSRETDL
HERG, sequence (Q12809 whole entry): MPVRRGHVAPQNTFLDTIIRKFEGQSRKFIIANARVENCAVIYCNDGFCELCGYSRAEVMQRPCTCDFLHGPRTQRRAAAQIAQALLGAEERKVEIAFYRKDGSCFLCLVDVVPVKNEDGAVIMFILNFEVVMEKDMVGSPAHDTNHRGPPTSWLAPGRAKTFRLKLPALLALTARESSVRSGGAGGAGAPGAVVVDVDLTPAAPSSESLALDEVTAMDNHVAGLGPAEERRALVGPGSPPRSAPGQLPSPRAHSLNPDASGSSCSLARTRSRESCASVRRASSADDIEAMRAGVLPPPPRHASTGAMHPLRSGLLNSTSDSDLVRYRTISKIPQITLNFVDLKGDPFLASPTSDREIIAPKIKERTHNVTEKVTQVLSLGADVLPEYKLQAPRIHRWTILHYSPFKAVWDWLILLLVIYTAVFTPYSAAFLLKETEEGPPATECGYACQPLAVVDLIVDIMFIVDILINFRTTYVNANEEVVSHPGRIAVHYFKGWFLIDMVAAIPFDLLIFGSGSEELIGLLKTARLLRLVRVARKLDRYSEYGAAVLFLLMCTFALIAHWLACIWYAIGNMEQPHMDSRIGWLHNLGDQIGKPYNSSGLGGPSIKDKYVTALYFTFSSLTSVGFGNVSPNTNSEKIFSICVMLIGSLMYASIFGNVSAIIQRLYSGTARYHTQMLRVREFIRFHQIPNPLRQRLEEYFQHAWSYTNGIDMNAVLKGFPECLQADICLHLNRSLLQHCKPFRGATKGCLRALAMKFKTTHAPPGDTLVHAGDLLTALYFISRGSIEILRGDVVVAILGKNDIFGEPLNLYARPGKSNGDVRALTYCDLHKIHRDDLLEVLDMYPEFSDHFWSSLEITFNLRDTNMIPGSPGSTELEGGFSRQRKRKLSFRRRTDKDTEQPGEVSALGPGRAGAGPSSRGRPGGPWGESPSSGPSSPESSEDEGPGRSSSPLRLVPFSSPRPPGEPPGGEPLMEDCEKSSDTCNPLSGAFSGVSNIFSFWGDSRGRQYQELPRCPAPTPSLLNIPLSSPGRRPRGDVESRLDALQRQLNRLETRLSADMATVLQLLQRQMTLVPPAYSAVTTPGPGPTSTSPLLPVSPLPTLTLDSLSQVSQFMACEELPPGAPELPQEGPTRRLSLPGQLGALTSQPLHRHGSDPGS
Description for HERG: HERG currents are recorded by the whole cell mode of patch clamp electrophysiology as described by Hamill et al.^3 HERG is stably over expressed in HEK cells. Microelectrodes are pulled from borosilicate glass (TW150) and heat polished (tip resistance, 1.5 to 3 megaohms). The external solution is standard Tyrodes solution. The internal (microelectrode) solution contained: 110 mM KCl, 5 mM K2ATP, 5 mM K4BAPTA, 1 mM MgCl2 and 10 mM HEPES, adjusted to pH 7.2 with KOH. […] Compounds are prepared as 10-20 mM DMSO stocks and diluted to appropriate test concentrations. […] Inhibition of HERG is measured at the peak of the tail currents and expressed relative to controls. Initial HERG activity is estimated by single point determinations run at 10 μM. Concentration response curves are generated for appropriate compounds utilizing at least four concentrations and an n=3. Curve fitting and IC50 estimating are done using Graphpad software (Ver. 4). • 1.

As to `COc1ccc(CCN2C(=O)N(NCc3ccncc3)CC2c2ccc(C)c(C)c2)cc1` (centres unmarked) [Compound 84, 4-(3,4-Dimethylphenyl)-3-[2-(4-methoxyphenyl)ethyl]-1-[(pyridin-4-ylmethyl)amino]-imidazolidin-2-one], at HERG, 10 µM produced 73% inhibition. For the same molecule, at 1 µM the inhibition at Kv1.5 was 67%. Also, the half-maximal inhibitory concentration (IC50) on Kv1.5 worked out at 570 nM; with L-type calcium channels it was 10 µM.

On HERG, `COc1ccc(CCN2C(=O)N(NS(=O)(=O)CC(=O)NC3CC3)CC2c2ccc(C3CC3)cc2)cc1` (centres unmarked) [Compound 51, 1-[[2-(Cyclopropylamino)-2-oxoethyl]sulfonylamino]-3-[2-(4-methoxyphenyl)ethyl]-4-(4-cyclopropylphenyl)-2-imidazolidinone] registered an inhibition at 10 µM of 20%. On Kv1.5, this molecule registered an inhibition at 1 µM of 87%. For the same molecule, the half-maximal inhibitory concentration (IC50) with L-type calcium channels is 21 µM.

In the case of `COc1ccc(CCN2C(=O)N(NS(=O)(=O)Cc3ccccc3)CC2c2ccc(C)c(C)c2)cc1` (centres unmarked) [Compound 43, 1-[(Phenylmethyl)sulfonylamino]-3-[2-(4-methoxyphenyl)ethyl]-4-(3,4-dimethyl-phenyl)-2-imidazolidinone], at 10 µM the inhibition against HERG was 2%. At Kv1.5, this molecule registered an inhibition at 1 µM of 93%. In addition, the IC50 in the data set on L-type calcium channels was found to be 4.3 µM.

On to `CS(=O)(=O)NN1CC(c2ccc(C3CC3)cc2)N(CCCc2ccccc2)C1=O` (centres unmarked) [Compound 45, 1-(Methylsulfonylamino)-3-(3-phenylpropyl)-4-(4-cyclopropylphenyl)-2-imidazolidinone], for which at 10 µM the inhibition against HERG was 55%. For the same molecule, the inhibition at 1 µM against Kv1.5 is 83%. Moreover, the IC50 with L-type calcium channels amounted to 16 µM.

In turn, `CC(C)(C)c1ccc(C2CN(NS(C)(=O)=O)C(=O)N2CCCc2ccccc2)cc1` (centres unmarked) [Compound 47, 1-(Methylsulfonylamino)-3-(3-phenylpropyl)-4-[4-(tert-butyl)phenyl]-2-imidazolidinone] registered an inhibition at 10 µM on HERG of 65%. Further, testing at 1 µM against Kv1.5 gave an inhibition of 73%. For the same molecule, the IC50 in the data set on L-type calcium channels was 26 µM.

With `COc1ccc(CCN2C(=O)N(NS(=O)(=O)Cc3cccnc3)CC2c2ccc(C3CC3)cc2)cc1` (centres unmarked) [Compound 64, 1-[(Pyridin-3-yl)methanesulfonyl]amino-3-[(4-methoxyphenyl)ethyl]-4-(4-cyclopropylphenyl)-imidazolidin-2-one], the inhibition at 10 µM against HERG was determined as 55%. The molecule also registered an inhibition at 1 µM at Kv1.5 of 96%. Besides, in the data set with L-type calcium channels, the IC50 was found to be 14 µM.

Turning to `COc1ccc(CCN2C(=O)N(NS(N)(=O)=O)CC2c2ccc(C3CC3)cc2)cc1` (centres unmarked) [Compound 10, 1-(Aminosulfonylamino)-3-[2-(4-methoxyphenyl)ethyl]-4-[(4-cyclopropyl)-phenyl]-2-imidazolidinone], the inhibition at 10 µM at HERG came to 57%. For the same molecule, on Kv1.5, the inhibition at 1 µM worked out at 89% and the IC50 was 238 nM. The concentration for half-maximal inhibition (IC50) in the data set with L-type calcium channels came out at 22 µM.

On HERG, `COc1ccc(CCN2C(=O)N(NCc3ccccc3)CC2c2ccc(C)c(C)c2)cc1` (centres unmarked) [Compound 88, 1-Benzylamino-4-(3,4-dimethylphenyl)-3-[2-(4-methoxyphenyl)ethyl]-2-imidazolidinone] registered an inhibition at 10 µM of 90%. On Kv1.5, this molecule yielded an inhibition at 1 µM of 94% and a 50% inhibitory concentration (IC50) of 399 nM. The half-inhibitory concentration (IC50) in the data set on L-type calcium channels stood at 11 µM.

`COc1ccc(CCN2C(=O)N(NS(C)(=O)=O)CC2c2ccc3c(c2)OC(C)(C)O3)cc1` (centres unmarked) [Compound 18, 1-(Methylsulfonylamino)-3-[2-(4-methoxyphenyl)ethyl]-4-(2,2-dimethylbenzo-[1,3]dioxol-5-yl)-2-imidazolidinone] registered an inhibition at 10 µM at HERG of 12%. Also, at 1 µM the inhibition at Kv1.5 was 59%. The IC50 in the data set on L-type calcium channels is 24 µM.

The molecule `C=CS(=O)(=O)NN1CC(c2ccc3c(c2)OCCO3)N(CCc2ccc(OC)cc2)C1=O` (centres unmarked) [Compound 33, 1-(Vinylsulfonylamino)-3-[2-(4-methoxyphenyl)ethyl]-4-[(2,3-dihydrobenzo-[1,4]dioxin-6-yl)]-2-imidazolidinone] displayed an inhibition at 10 µM against HERG of 20%. For the same molecule, 1 µM produced 85% inhibition against Kv1.5. The IC50 with L-type calcium channels is 35 µM.

`COc1ccc(CCN2C(=O)N(NS(C)(=O)=O)CC2c2ccc3c(c2)OCCO3)cc1` (centres unmarked) [Compound 17, 1-(Methylsulfonylamino)-3-[2-(4-methoxyphenyl)ethyl]-4-[(2,3-dihydro-benzo[1,4]dioxin-6-yl)]-2-imidazolidinone] came in with an inhibition at 10 µM at HERG of 22%. This molecule registered an inhibition at 1 µM against Kv1.5 of 89%. The IC50 in the data set on L-type calcium channels is 40 µM.

Molecule `COc1ccc(CCCN2C(=O)N(NS(=O)(=O)CS(C)(=O)=O)CC2c2ccc(C3CC3)cc2)cc1` (centres unmarked) [Compound 127, N-{4-(4-cyclopropylphenyl)-3-[3-(4-methoxyphenyl)propyl]-2-oxoimidazolidin-1-yl}-1-(methylsulfonyl)methanesulfonamide] registered an inhibition at 10 µM against HERG of 54%. This molecule also displayed an inhibition at 1 µM at Kv1.5 of 91%. In addition, in the data set with L-type calcium channels, the IC50 turned out to be 19 µM.

At HERG, `COc1ccc(CCN2C(=O)N(NS(C)(=O)=O)C[C@H]2c2ccc(OC)cc2)cc1` [Compound 106, 1-(Methylsulfonylamino)-3-[2-(4-methoxyphenyl)ethyl]-4-(R)-(4-methoxyphenyl)-2-imidazolidinone] returned an IC50 of 35 µM and an inhibition at 10 µM of 17%. Besides, on Kv1.5, the inhibition at 1 µM turned out to be 74% and the IC50 was 474 nM. For the same molecule, the 50% inhibitory concentration (IC50) in the data set with L-type calcium channels was 30 µM.

Take `COc1ccc(CCN2C(=O)N(NS(C)(=O)=O)CC2c2ccc(C(C)(C)C)cc2)cc1` (centres unmarked) [Compound 24, 1-(Methylsulfonylamino)-3-[(4-methoxyphenyl)ethyl]-4-[4-(tert-butyl)phenyl]-imidazolidinone]: the IC50 at HERG worked out at 6.4 µM; on Kv1.5, 514 nM; in the data set with L-type calcium channels, 10 µM. The inhibition at 10 µM against HERG is 74%. Besides, 1 µM produced 82% inhibition at Kv1.5.

`COc1ccc(CCCN2C(=O)N(N)CC2c2ccc(C(C)(C)C)cc2)cc1` (centres unmarked) [Compound 119, 1-amino-4-(4-tert-butylphenyl)-3-[3-(4-methoxyphenyl)propyl]imidazolidin-2-one] registered an inhibition at 10 µM at HERG of 70%. The molecule further had an inhibition at 1 µM against Kv1.5 of 80%. For the same molecule, in the data set on L-type calcium channels, the IC50 was found to be 2 µM.

In turn, `COc1ccc(CCN2C(=O)N(NS(=O)(=O)CC(F)(F)F)CC2c2ccc(C(C)(C)C)cc2)cc1` (centres unmarked) [Compound 38, 1-(2,2,2-Trifluoroethanesulfonylamino)-4-[4-(tert-butyl)phenyl]-3-[2-(4-methoxyphenyl)ethyl]-2-imidazolidinone] gave an inhibition at 10 µM on HERG of 56%. The inhibition at 1 µM on Kv1.5 amounted to 85%. In addition, the half-inhibitory concentration (IC50) with L-type calcium channels amounted to 5.6 µM.

Take `COc1ccc(CCN2C(=O)N(NS(C)(=O)=O)CC2c2ccc(C)cc2)cc1` (centres unmarked) [Compound 20, 1-(Methylsulfonylamino)-3-[(4-methoxyphenyl)ethyl]-4-(4-methylphenyl)-2-imidazolidinone]: on HERG, at 10 µM the inhibition was 15%. The molecule also had an inhibition at 1 µM against Kv1.5 of 73%. Besides, the IC50 in the data set with L-type calcium channels was 30 µM.

Take `COc1ccc(CCN2C(=O)N(NS(=O)(=O)CC#N)CC2c2ccc3c(c2)OCCO3)cc1` (centres unmarked) [Compound 40, 1-(Cyanomethylsulfonylamino)-3-[2-(4-methoxyphenyl)ethyl]-4-[(2,3-dihydro-benzo[b][1,4]dioxin-6-yl)]-2-imidazolidinone]: at HERG, testing at 10 µM gave an inhibition of 1%. On Kv1.5, this molecule displayed an inhibition at 1 µM of 70%. For the same molecule, in the data set with L-type calcium channels, the IC50 is 30 µM.

On HERG, `COc1ccc(CCN2C(=O)N(NS(=O)(=O)CCS(C)(=O)=O)CC2c2ccc(C3CC3)cc2)cc1` (centres unmarked) [Compound 114, N-{4-(4-cyclopropylphenyl)-3-[2-(4-methoxyphenyl)ethyl]-2-oxoimidazolidin-1-yl}-2-(methylsulfonyl)ethanesulfonamide] showed an inhibition at 10 µM of 55%. The molecule further had an inhibition at 1 µM against Kv1.5 of 75%. Besides, in the data set on L-type calcium channels, the IC50 was 15 µM.

For `COc1ccc(CCN2C(=O)N(NS(=O)(=O)Cc3cccnc3)CC2c2ccc(OC)cc2)cc1` (centres unmarked) [Compound 66, 1-[(Pyridin-3-yl)methylsulfonyl]amino-3-[2-(4-methoxyphenyl)ethyl]-4-(4-methoxyphenyl)-2-imidazolidinone], the half-maximal inhibitory concentration (IC50) came out at 12.6 µM on HERG, 257 nM against Kv1.5 and 30 µM in the data set with L-type calcium channels. Also, at Kv1.5, at 1 µM the inhibition was 86%.

In the case of `COc1ccc(CCN2C(=O)N(NS(=O)(=O)CC(N)=O)CC2c2ccc(C3CC3)cc2)cc1` (centres unmarked) [Compound 52, 1-[(2-Amino-2-oxoethyl)sulfonylamino]-3-[2-(4-methoxyphenyl)ethyl]-4-(4-cyclopropylphenyl)-2-imidazolidinone], at 10 µM the inhibition against HERG was 29%. The molecule also yielded an inhibition at 1 µM on Kv1.5 of 80%. In addition, in the data set on L-type calcium channels, the half-inhibitory concentration (IC50) was determined as 16 µM.

`COc1ccc(CCCN2C(=O)N(NS(=O)(=O)CC(N)=O)CC2c2ccc(C3CC3)cc2)cc1` (centres unmarked) [Compound 104, 1-[(2-Amino-2-oxoethyl)sulfonylamino]-3-[3-(4-methoxyphenyl)propyl]-4-(4-cyclopropylphenyl)-2-imidazolidinone] came in with an inhibition at 10 µM against HERG of 56%. Further, on Kv1.5, the inhibition at 1 µM was 87%. Moreover, in the data set on L-type calcium channels, the IC50 is 21 µM.

`COc1ccc(CCN2C(=O)N(NS(C)(=O)=O)CC2c2ccc(OC)c(C)c2)cc1` (centres unmarked) [Compound 12, 1-(Methylsulfonylamino)-3-[2-(4-methoxyphenyl)ethyl]-4-[(3-methyl-4-methoxy)phenyl]-2-imidazolidinone] showed an inhibition at 10 µM at HERG of 19%. The molecule further displayed an inhibition at 1 µM against Kv1.5 of 82%. For the same molecule, in the data set on L-type calcium channels, the half-inhibitory concentration (IC50) came out at 38 µM.
